Measurements: patent publication US11766470B2, “Manufacture, formulation and dosing of apraglutide” (VectivBio AG, priority 2020, dated 2023)
Like-named read-outs stand apart in the source and are kept apart here. Square brackets hold non-standard residues; d marks the D form. Peptide text beside a SMILES is read from it. ξ: configuration not given here. Ile(3ξ) = CCC(C)[C@H](N)C(=O)O; Thr(3ξ) = CC(O)[C@H](N)C(=O)O; Nle = CCCC[C@H](N)C(=O)O

Experiments:
[1] = MCP-MOD dose-response analysis of citrulline (week 6) in healthy volunteers (Example 7); set-up: species or system human; conditions: for MCP step, estimate of the difference: citrulline week 6
From the text: The MCP-MOD procedure was applied. This statistical methodology consisted of 2 steps: the multiple comparisons step and the modelling step. The first step of the procedure (MCP) is used to test for a significant dose response by assessing pre-specified candidate models. Once a dose response has been established, the second step (MOD) is used to estimate a dose-response curve and estimation of target doses of interest. Five candidate models were specified:
Linear model with maximum effect for the 10 mg dose
Log-linear model with maximum effect for the 10 mg dose
Dose that induces maximum effect (Emax) model with ED50 of 5 mg
Sigmoidal Emax model with ED50 of 1 mg and hill coefficient (HILL) of 2
Sigmoidal Emax model with ED50 of 5 mg and HILL of 5
A subset of the citrulline data was made with the average pre-value and day 35 to 42=week 6 data. The coefficients were implemented in the mixed model analysis of variance with fixed factors treatment, time and treatment by time, random factor subject, and the average prevalue as covariate. The average pre-value was calculated from all pre-values after screening and before dosing.
The following contrasts are calculated within the model:
For all pharmacodynamic endpoints (citrulline, Bristol stool scale and weight), the pre-value has been used as covariate. The average pre-value was calculated from all pre-values after screening and before dosing, except for the Bristol stool scale, where the screening value was also used to calculate the average baseline. The average pre-value of citrulline was also used as covariate in the MCP-MOD, except in the Sigmoid Emax model. This was addressed by subtracting the pre-value times the slope of the linear model of the MCP part from the values of week 6.

hGLP-2 receptor = target: T1, hGLP-2 receptor (Homo sapiens, UniProt O95838); test: hGLP-2 receptor transcriptional reporter gene assay (cAMP-responsive luciferase) in HEK-293 cells (Example 2); type: cell-based
T1 construct: expressed in transfected cells; host or cells: HEK-293 (human embryonic kidney), transient transfection
T1 sequence (O95838 1-553): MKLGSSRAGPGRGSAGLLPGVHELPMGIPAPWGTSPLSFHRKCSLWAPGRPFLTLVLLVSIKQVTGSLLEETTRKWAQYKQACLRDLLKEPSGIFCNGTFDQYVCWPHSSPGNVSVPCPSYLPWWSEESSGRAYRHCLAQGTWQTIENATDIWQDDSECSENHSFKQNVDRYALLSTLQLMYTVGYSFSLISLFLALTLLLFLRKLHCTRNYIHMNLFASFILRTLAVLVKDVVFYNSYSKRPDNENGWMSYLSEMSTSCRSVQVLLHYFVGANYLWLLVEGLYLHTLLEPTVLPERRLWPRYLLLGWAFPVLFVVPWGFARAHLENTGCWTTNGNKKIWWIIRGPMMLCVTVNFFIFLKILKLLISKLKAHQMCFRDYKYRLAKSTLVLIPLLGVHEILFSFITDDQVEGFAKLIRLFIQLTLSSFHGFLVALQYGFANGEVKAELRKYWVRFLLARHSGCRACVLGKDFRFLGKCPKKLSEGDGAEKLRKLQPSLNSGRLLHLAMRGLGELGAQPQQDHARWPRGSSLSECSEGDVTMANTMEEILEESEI
From the text: To determine activities of GLP-2 agonists of the present disclosure on the hGLP-2 receptor, a transcriptional reporter gene assay is used. Two constructs are transiently transfected into a human embryonic kidney cell line (HEK-293): an hGLP-2 receptor expression DNA construct and a reporter DNA construct containing intracellular cAMP-responsive promoter elements regulating expression of firefly luciferase. (See for example HimmLer et al., J. Recept. Res., (1993), 13, […] for further guidance on this assay.)
Cells are exposed for 5 hours to serial dilutions of compounds diluted half-log per dose. After exposure to compounds, cells are lysed, luciferase activity is determined, and compound efficacies and EC50 values are determined by non-linear regression analysis. hGLP-2, a naturally occurring 33-amino acid peptide ligand, is used as an internal control in each experiment.

[2] = Solubility, pH and isoelectric point of the peptide; type: physicochemical; conditions: purified water
[3] = human, sc, 5 mg
From the text: Plasma citrulline was used as a pharmacodynamic (“PD”) marker to describe the effect of apraglutide. Similar to the pharmacokinetic (“PK”) model development, the PK/PD model was developed for the healthy individuals from studies GLY-101-2015 and TA799-002 only. For development of the PD model, the PD observations were fitted together with the PK observations using the final PK model with its structure, residual error-, covariates- and random effects-models. The starting model was a turnover model where plasma citrulline was constantly synthesized and degraded with the synthesis rate ksyn and the degradation rate kdeg. Plasma apraglutide stimulated citrulline synthesis via a sigmoid Emax relationship with the baseline citrulline level R0, the half-maximal effect at the concentration EC50, the maximal effect Emax, and a Hill coefficient gamma. It was assumed that citrulline turnover was in steady state such that citrulline synthesis was determined solely by citrulline baseline and degradation. The population PK/PD of plasma apraglutide was established with data from two studies in healthy volunteers and two studies with SBS patients that tested doses between 2.5 and 50 mg SC.
The population PK/PD model was used to predict plasma apraglutide exposure and plasma citrulline trough concentration-time profiles with and without inter-individual variability for individuals with body weights between 40 and 120 kg receiving weekly doses of 2.5, 5, or 10 mg SC. […] Apraglutide exposure for body weights between 40 and 120 kg and apraglutide SC doses of 2.5, 5, or 10 mg was compared to post-hoc exposure estimates of SBS patients. Bracketing at a body weight of 50 kg between doses of 2.5 and 5 mg was simulated.
Plasma citrulline was described by a turnover model and maximal PD effect model.

[4] = as compared with human GLP-2 and other GLP-2 analogues; cited from earlier work
clinical = conditions: human, in vivo; for half-life: t1/2, arithmetic mean ± SD; for CL/F: sc
Description: 23 healthy adult volunteers received 6 weekly subcutaneous doses of apraglutide (1, 5, or 10 mg) or placebo and were followed for a further 6 weeks after the last dose. Blood collections were controlled for diet, lifestyle, and diurnal effects. […] PK data underwent non-compartmental analysis and PD data were analyzed by ANCOVA.
As with citrulline, a statistical steady-state analysis per dose level was performed for apraglutide using Helmert's approach.

patients with SBS-IF = test: Safety assessments (adverse events) in Phase 2 SBS-IF trial (Example 5)
Description: In Part A, patients were treated with 5 mg apraglutide or placebo once weekly for 4 weeks. After a washout period of 6-10 weeks, the alternate treatment was given. Part A was followed by a second washout period of 6-10 weeks before patients entered Part B. Part B was an open-label dosing regimen with 10 mg apraglutide given once weekly for 4 weeks. The additional open-label treatment period (Part B) was included to investigate the safety and tolerability of 10 mg dosing. The procedures during each treatment period were consistent. The trial drug was provided as a freeze-dried powder for reconstitution and was administered as subcutaneous injections in the abdominal area.
Safety assessments were performed for each treatment period and included observation for injection site reactions, vital signs, blood samples, electrocardiogram (ECG), dipstick urinalysis, body weight and liver enzymes. […] Additionally, liver enzymes were measured prior to each drug administration.

[5] = whole trial, incl. placebo periods

## CCCC[C@H](NC(=O)[C@H](CCC(=O)O)NC(=O)[C@H](CC(=O)O)NC(=O)[C@H](CO)NC(=O)[C@H](Cc1ccccc1)NC(=O)[C@H](CO)NC(=O)CNC(=O)[C@H](CC(=O)O)NC(=O)CNC(=O)[C@@H](N)Cc1c[nH]cn1)C(=O)N[C@H](Cc1ccccc1)C(=O)N[C@H](C(=O)N[C@H](C(=O)N[C@@H](CC(C)C)C(=O)N[C@@H](CC(=O)O)C(=O)N[C@@H](CC(C)C)C(=O)N[C@@H](CC(C)C)C(=O)N[C@@H](C)C(=O)N[C@@H](C)C(=O)N[C@@H](CCCNC(=N)N)C(=O)N[C@@H](CC(=O)O)C(=O)N[C@@H](Cc1ccccc1)C(=O)N[C@H](C(=O)N[C@@H](CC(N)=O)C(=O)N[C@@H](Cc1c[nH]c2ccccc12)C(=O)N[C@@H](CC(C)C)C(=O)N[C@H](C(=O)N[C@@H](CCC(N)=O)C(=O)N[C@H](C(=O)N[C@@H](CCCCN)C(=O)N[C@H](C(=O)N[C@H](C(=O)N[C@@H](CC(=O)O)C(N)=O)C(C)O)C(C)CC)C(C)O)C(C)CC)C(C)CC)C(C)CC)C(C)O (stereo partly drawn) [apraglutide, L-histidyl-glycyl-L-aspartyl-glycyl-L-seryl-L-phenylalanyl-L-seryl-L-aspartyl-L-glutamyl-L-norleucyl-D-phenylalanyl-L-threonyl-Lisoleucyl-L-leucyl-L-aspartyl-L-leucyl-L-leucyl-L-alanyl-L-alanyl-L-arginyl-L-aspartyl-L-phenylalanyl-L-isoleucyl-L-asparaginyl-Ltryptophanyl-L-leucyl-L-isoleucyl-L-glutaminyl-L-threonyl-L-lysyl-L-isoleucyl-L-threonyl-Laspartic acid amide] (H-HGDGSFSDE[Nle][dF][Thr(3ξ)][Ile(3ξ)]LDLLAARDF[Ile(3ξ)]NWL[Ile(3ξ)]Q[Thr(3ξ)]K[Ile(3ξ)][Thr(3ξ)]D-NH2)
[1]; Emax model
  Predicted citrulline change from placebo effect for dose of 1 mg: 0.8535 µg/mL
  Predicted citrulline change from placebo effect for dose of 5 mg: 2.2442 µg/mL
  Predicted citrulline change from placebo effect for dose of 10 mg: 2.8182 µg/mL
  Predicted dose for citrulline change from placebo of 1 μg/mL: 1.2333 mg
  Predicted dose for citrulline change from placebo of 2 μg/mL: 3.8471 mg
  Predicted dose for citrulline change from placebo of 3 μg/mL: 13.1053 mg
[1]; Log-linear model
  Predicted citrulline change from placebo effect for dose of 1 mg: 0.8712 µg/mL
  Predicted citrulline change from placebo effect for dose of 5 mg: 2.1652 µg/mL
  Predicted citrulline change from placebo effect for dose of 10 mg: 2.8604 µg/mL
  Predicted dose for citrulline change from placebo of 1 μg/mL: 1.2249 mg
  Predicted dose for citrulline change from placebo of 2 μg/mL: 4.2011 mg
  Predicted dose for citrulline change from placebo of 3 μg/mL: 11.4325 mg
[1]; Sigmoid Emax model
  Predicted citrulline change from placebo effect for dose of 1 mg: 0.7125 µg/mL
  Predicted citrulline change from placebo effect for dose of 5 mg: 2.3327 µg/mL
  Predicted citrulline change from placebo effect for dose of 10 mg: 2.6946 µg/mL
  Predicted dose for citrulline change from placebo of 1 μg/mL: 1.3606 mg
  Predicted dose for citrulline change from placebo of 2 μg/mL: 3.4042 mg
  Predicted dose for citrulline change from placebo of 2.5 μg/mL: 6.4619 mg
[1]; candidate model Emax with ED50 = 5 mg
  MCP step, estimate of the difference: 2.2150
[1]; candidate model Linear
  MCP step, estimate of the difference: 2.0781
[1]; candidate model Log-linear
  MCP step, estimate of the difference: 2.2125
[1]; candidate model Sigmoid Emax with ED50 = 1 mg and H = 2
  MCP step, estimate of the difference: 2.1663
[1]; candidate model Sigmoid Emax with ED50 = 5 mg and H = 5
  MCP step, estimate of the difference: 2.0713
hGLP-2 receptor
  Agonist activity, potency and selectivity at the GLP-2 receptor, in words: selective, full agonist of the GLP-2 receptor with potency and selectivity comparable to native GLP-2
[2]
  solubility: > 100 mg/mL
[3]
  Time of peak plasma concentration (Cmax), population PK/PD model estimate: 1.39 days
[4]
  half-life: at least 30 hours
clinical; 5 mg
  Vd/F: 55.4 L
  half-life: 73 h
  CL/F: 11.4 mL/min
clinical; 10 mg
  Vd/F: 105 L
  half-life: 76.3 h
  CL/F: 14.4 mL/min
clinical; 1 mg
  CL/F: 12.2 mL/min
Patients with SBS-IF; 5 mg (N = 8)
  Any related adverse events, number of patients: 8
  Decreased appetite, number of patients: 1
  Edema, number of patients: 2
  Gastrointestinal stoma complication, number of patients: 5
  Gastrointestinal stoma output abnormal, number of patients: 4
  Gastrointestinal stoma output decreased, number of patients: 3
  Increased weight, number of patients: 1
  Polyuria, number of patients: 4
  Stoma complication, number of patients: 6
  Thirst decreased, number of patients: 3
Patients with SBS-IF; 5 mg dose group
  Injection site reactions, number of patients: one
Patients with SBS-IF; 10 mg (N = 8)
  Any related adverse events, number of patients: 8
  Decreased appetite, number of patients: 2
  Edema, number of patients: 2
  Gastrointestinal stoma complication, number of patients: 5
  Gastrointestinal stoma output abnormal, number of patients: 4
  Gastrointestinal stoma output decreased, number of patients: 6
  Increased weight, number of patients: 2
  Polyuria, number of patients: 6
  Stoma complication, number of patients: 6
  Thirst decreased, number of patients: 4
Patients with SBS-IF; 10 mg dose group
  Injection site reactions, number of patients: three
Patients with SBS-IF; 5 and 10 mg once weekly for four weeks
  Safety and tolerability in words: well tolerated and safe
Patients with SBS-IF; Total, all periods (N = 8)
  Any related adverse events, number of patients: 8
  Decreased appetite, number of patients: 3
  Edema, number of patients: 4
  Gastrointestinal stoma complication, number of patients: 5
  Gastrointestinal stoma output abnormal, number of patients: 5
  Gastrointestinal stoma output decreased, number of patients: 6
  Increased weight, number of patients: 3
  Polyuria, number of patients: 7
  Stoma complication, number of patients: 6
  Thirst decreased, number of patients: 5
Patients with SBS-IF; whole trial
  Deaths: no deaths
  Injection site reactions, number of patients: Three
  Serious adverse events related to the trial drug: None of these were considered related to the trial drug
Patients with SBS-IF; [5]
  Patients reporting serious adverse events: 5 patients
  Serious adverse events, number of cases: 8 cases
